In ChEMBL document CHEMBL1201862, “PubChem BioAssay data set” (2004):
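Tested at 5 concentrations; 48 h exposure; 96-well plates; endpoints linearly interpolated, else capped at highest concentration. Here, GI50 denotes the concentration required for 50% inhibition of growth.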 Calls of active or inactive are those of the source. No stated cut-off is given here; in the data, active = GI50 up to about 1.1 µM and inactive = higher. Starred links: 1 amine or outer side, 2 acyl side, 3 side chain; linkers in the order of their positions; H or OH if unused. Non-standard residues stand in square brackets, D forms with d. Residues, ends and D or L forms follow the SMILES beside them. ξ: configuration not given here. X24 = O=C(C(CC(O)CO)O[*:1])[*:2]; Ile(3ξ) = CCC(C)[C@H](N)C(=O)O; NMeV = CN[C@H](C(=O)O)C(C)C; NMeA = CN[C@@H](C)C(=O)O; βAla = NCCC(=O)O

Columns and labels:
Experiment in all cases: inhibition of tumour cell growth, NCI panel, 48 h
[1] = system: Malme-3M
[2] = system: NCI/ADR-RES
[3] = system: SF-295
[4] = system: SK-MEL-5
[5] = system: OVCAR-5
[6] = system: UACC-62
[7] = system: SNB-75
[8] = system: HCT-116
[9] = system: NCI-H226
[10] = system: IGROV-1
[11] = system: NCI-H23
[12] = system: SNB-19
[13] = system: OVCAR-3
[14] = system: OVCAR-8
[15] = system: SK-OV-3
[16] = system: SK-MEL-2
[17] = system: DU-145
[18] = system: KM12
[19] = system: HOP-92
[20] = system: A498

SMILES | GI50 [1] | GI50 [2] | GI50 [3] | GI50 [4] | GI50 [5] | GI50 [6] | GI50 [7] | GI50 [8] | GI50 [9] | GI50 [10] | GI50 [11] | GI50 [12] | GI50 [13] | GI50 [14] | GI50 [15] | GI50 [16] | GI50 [17] | GI50 [18] | GI50 [19] | GI50 [20]
[O-][S+](c1ccc(Cl)cc1)c1ccccc1C1=NCCN1 (stereo unspecified) | > 100 µM (inactive) | > 100 µM (inactive) | > 100 µM (inactive) | > 100 µM (inactive) | > 100 µM (inactive) | > 100 µM (inactive) | > 100 µM (inactive) | > 100 µM (inactive) | > 100 µM (inactive) | > 100 µM (inactive) | > 100 µM (inactive) | > 100 µM (inactive) | > 100 µM (inactive) | > 100 µM (inactive) | > 100 µM (inactive) | > 100 µM (inactive) | > 100 µM (inactive) | > 100 µM (inactive) |  | 
C/C(=N\NC(=S)N1CCN(C)CC1)c1nc2cccnc2[nH]1 | > 100 µM (inactive) | > 100 µM (inactive) | > 100 µM (inactive) | > 100 µM (inactive) | > 100 µM (inactive) | > 100 µM (inactive) | > 100 µM (inactive) |  | > 100 µM (inactive) | > 100 µM (inactive) | > 100 µM (inactive) | > 100 µM (inactive) | > 100 µM (inactive) | > 100 µM (inactive) | > 100 µM (inactive) |  |  | > 100 µM (inactive) | > 100 µM (inactive) | > 100 µM (inactive)
O=C(O)c1ccc(C2=Nc3cccc4cccc(c34)N2)cc1 | > 100 µM (inactive) | > 100 µM (inactive) | > 100 µM (inactive) | > 100 µM (inactive) |  | > 100 µM (inactive) | > 100 µM (inactive) | > 100 µM (inactive) | > 100 µM (inactive) | > 100 µM (inactive) | > 100 µM (inactive) | > 100 µM (inactive) | > 100 µM (inactive) | > 100 µM (inactive) | > 100 µM (inactive) | > 100 µM (inactive) | > 100 µM (inactive) | > 100 µM (inactive) | 45.6 µM (inactive) | 
C/C(=N/O)c1cccc(Nc2nc3ccc(Cl)cc3c3[nH]c4ccccc4c23)c1 |  | 1.92 µM (inactive) | 1.41 µM (inactive) | 1.18 µM (inactive) | 2.07 µM (inactive) | 1.83 µM (inactive) | < 0.01 µM (active) | 0.205 µM (active) | 2.69 µM (inactive) | 1.5 µM (inactive) | 1.92 µM (inactive) | 2.88 µM (inactive) | 0.192 µM (active) | 1.93 µM (inactive) | 3.42 µM (inactive) | 1.93 µM (inactive) | 0.261 µM (active) | 1.38 µM (inactive) |  | 
COc1cc2c(cc1OS(C)(=O)=O)N=C[C@@H]1CCCN1C2=O | > 100 µM (inactive) |  | > 100 µM (inactive) | > 100 µM (inactive) |  | > 100 µM (inactive) | > 100 µM (inactive) | > 100 µM (inactive) | > 100 µM (inactive) | > 100 µM (inactive) | > 100 µM (inactive) | > 100 µM (inactive) | > 100 µM (inactive) | > 100 µM (inactive) | > 100 µM (inactive) | > 100 µM (inactive) | > 100 µM (inactive) | > 100 µM (inactive) | > 100 µM (inactive) | > 100 µM (inactive)
CCOC1=CP(=O)(OCC)CC(C)=C1Cl (stereo unspecified) | > 100 µM (inactive) |  | > 100 µM (inactive) | > 100 µM (inactive) | > 100 µM (inactive) | > 100 µM (inactive) | 30.4 µM (inactive) | > 100 µM (inactive) | > 100 µM (inactive) | > 100 µM (inactive) | > 100 µM (inactive) | > 100 µM (inactive) | > 100 µM (inactive) | > 100 µM (inactive) | > 100 µM (inactive) | > 100 µM (inactive) |  | > 100 µM (inactive) | > 100 µM (inactive) | > 100 µM (inactive)
COc1ccc(-c2nc(-c3cc4c(ccc5ccccc54)oc3=O)cs2)cc1 |  |  | > 100 µM (inactive) | > 100 µM (inactive) | > 100 µM (inactive) | > 100 µM (inactive) | 66.5 µM (inactive) | 59.8 µM (inactive) | 31 µM (inactive) | > 100 µM (inactive) |  | > 100 µM (inactive) |  |  | > 100 µM (inactive) | > 100 µM (inactive) | > 100 µM (inactive) | > 100 µM (inactive) | > 100 µM (inactive) | 
CS(=O)(=O)c1nc(-c2cc3c(c(S(C)(=O)=O)n2)CCCC3)cc2c1CCCCC2 |  | > 100 µM (inactive) | > 100 µM (inactive) | > 100 µM (inactive) | > 100 µM (inactive) | > 100 µM (inactive) | 22.4 µM (inactive) | > 100 µM (inactive) | > 100 µM (inactive) | 11.2 µM (inactive) | > 100 µM (inactive) | > 100 µM (inactive) | > 100 µM (inactive) | 32.5 µM (inactive) | 72.4 µM (inactive) | > 100 µM (inactive) | > 100 µM (inactive) | > 100 µM (inactive) |  | 
O=C1NC(N2CCCCC2)=N/C1=C\c1ccccc1 | > 100 µM (inactive) | > 100 µM (inactive) | > 100 µM (inactive) |  | > 100 µM (inactive) | > 100 µM (inactive) | > 100 µM (inactive) | > 100 µM (inactive) | > 100 µM (inactive) | > 100 µM (inactive) | > 100 µM (inactive) | > 100 µM (inactive) | > 100 µM (inactive) | > 100 µM (inactive) | > 100 µM (inactive) | > 100 µM (inactive) | > 100 µM (inactive) | > 100 µM (inactive) | > 100 µM (inactive) | 
COC(=O)C1(C(=O)OC)C/C(C)=C(/C)SCCCS1 | > 100 µM (inactive) | > 100 µM (inactive) | > 100 µM (inactive) | > 100 µM (inactive) | > 100 µM (inactive) | > 100 µM (inactive) | 28.4 µM (inactive) | > 100 µM (inactive) | 79.1 µM (inactive) | > 100 µM (inactive) | > 100 µM (inactive) | > 100 µM (inactive) | 92.7 µM (inactive) | > 100 µM (inactive) | > 100 µM (inactive) | > 100 µM (inactive) | > 100 µM (inactive) | > 100 µM (inactive) | 49.5 µM (inactive) | 
COc1ccc(-c2c(C#N)c(S)n(NS(=O)(=O)c3ccccc3)c(=O)c2C#N)cc1 | > 96.6 µM (inactive) | 70.5 µM (inactive) | 77.3 µM (inactive) | 36.7 µM (inactive) | > 100 µM (inactive) | 34.5 µM (inactive) | > 100 µM (inactive) | 37.9 µM (inactive) | > 100 µM (inactive) | 31.9 µM (inactive) | 75.2 µM (inactive) | > 100 µM (inactive) | 87.9 µM (inactive) | 48.8 µM (inactive) | > 100 µM (inactive) | 47 µM (inactive) | > 100 µM (inactive) | 70.6 µM (inactive) |  | 
Cc1cc(Cl)cc2c1NC(=O)C2(O)C(C)C(=O)c1ccc(Cl)cc1 (stereo unspecified) | > 61.7 µM (inactive) |  | > 92.5 µM (inactive) | 27.7 µM (inactive) | > 100 µM (inactive) | 20.2 µM (inactive) | > 59.3 µM (inactive) | > 74.1 µM (inactive) | > 60.1 µM (inactive) | > 81.3 µM (inactive) | > 72.1 µM (inactive) | > 100 µM (inactive) | 49.9 µM (inactive) | > 85.9 µM (inactive) | > 100 µM (inactive) | > 100 µM (inactive) |  | 99.1 µM (inactive) | 33.9 µM (inactive) | > 57.7 µM (inactive)
CCCC/C=C1\CCC(CN2CCOCC2)C1=O (stereo unspecified) | 2.19 µM (inactive) |  | 16.3 µM (inactive) | 12 µM (inactive) | 17.4 µM (inactive) | 6.4 µM (inactive) | 2.27 µM (inactive) | 2.04 µM (inactive) | 8.63 µM (inactive) | 14.3 µM (inactive) | 5.7 µM (inactive) | 15.8 µM (inactive) | 5.32 µM (inactive) | 10 µM (inactive) | 17.1 µM (inactive) | 10.1 µM (inactive) | 16.9 µM (inactive) | 1.8 µM (inactive) | 1.83 µM (inactive) | 14.1 µM (inactive)
CN1C(=O)C(O)C[C@@H]1c1ccc(F)cc1 (stereo partly specified) |  |  | > 100 µM (inactive) | > 100 µM (inactive) | > 100 µM (inactive) | > 100 µM (inactive) |  | > 100 µM (inactive) | > 100 µM (inactive) | > 100 µM (inactive) | > 100 µM (inactive) | > 100 µM (inactive) | > 100 µM (inactive) |  | > 100 µM (inactive) | > 100 µM (inactive) | > 100 µM (inactive) |  | > 100 µM (inactive) | 
CCC(C)[C@@H]1NC(=O)[C@@H]2CCCN2C(=O)C(CC(O)CO)OC(=O)CCNC(=O)[C@H](C)N(C)C(=O)[C@H](C(C)C)N(C)C1=O (stereo partly specified) (cyclo([Ile(3ξ)][NMeV][NMeA][βAla][X24]P)) | > 100 µM (inactive) |  | 91 µM (inactive) | > 100 µM (inactive) | > 100 µM (inactive) | > 100 µM (inactive) | > 100 µM (inactive) | > 100 µM (inactive) | > 100 µM (inactive) | > 100 µM (inactive) | > 100 µM (inactive) | > 100 µM (inactive) | > 100 µM (inactive) | > 100 µM (inactive) | > 100 µM (inactive) | > 100 µM (inactive) |  | > 100 µM (inactive) | > 100 µM (inactive) | > 100 µM (inactive)
